Consider 14 molecules from patent publication US9975900B2, “Substituted imidazo[1,2-α]pyrazines for treating spinal muscular atrophy” (Hoffmann-La Roche Inc., priority 2014, dated 2018).

Structures can show the parent of a compound that is named as a salt.

In assay [1] the test system is SMN protein in SMA patient fibroblast cells (GM03813). Description: SMN protein assay (HTRF) in cultured cells. The assay is classed as cell-based. To be noted: Homo sapiens, SMA Type 1 patient fibroblasts, 48 hours; for EC (1.5-fold): 7-point concentration curve, concentration giving 1.5 times SMN protein vs vehicle, read-out: EC1.5x SMN protein (EC1.5x concentration for SMN protein expression); for maximal fold induction: fold increase relative to vehicle control, read-out: Max. fold increase of SMN protein. How it is done: The SMN HTRF (homogeneous time resolved fluorescence) assay is used to quantify the level of SMN protein in SMA patient fibroblast cells treated with test compounds. Materials used and respective sources are listed below in Table 4.
Cells are thawed and cultured in DMEM-10% FBS for 72 hours. Cells are trypsinized, counted and re-suspended to a concentration of 25,000 cells/mL in DMEM-10% FBS. The cell suspensions are plated at 5,000 cells per well in a 96 well microtiter plate and incubated for 3 to 5 hours. Test compounds are serially diluted 3.16-fold in 100% DMSO to generate a 7-point concentration curve. 1 μL of test compound solution is transferred to cell-containing wells and cells are incubated for 48 hours in a cell culture incubator (37° C., 5% CO2, 100% relative humidity). Triplicate samples are set up for each test compound concentration. After 48 hours, the supernatant is removed from the wells and 25 μL of the RIPA lysis buffer, containing protease inhibitors, is added to the wells and incubated with shaking at room temperature for 1 hour. 25 μL of the diluent is added and then 35 μL of the resulting lysate is transferred to a 384-well plate, where each well contains 5 μL of the antibody solution (1:100 dilution of anti-SMN d2 and anti-SMN cryptate in SMN reconstitution buffer). The plate is centrifuged for 1 minute to bring the solution to the bottom of the wells, then incubated overnight at room temperature. Fluorescence for each well of the plate at 665 nm and 620 nm is measured on an EnVision multilabel plate reader (Perkin-Elmer).
The normalized fluorescence signal is calculated for each sample, Blank and vehicle control well by dividing the signal at 665 nm by the signal at 620 nm. Normalizing the signal accounts for possible fluorescence quenching due to the matrix effect of the lysate. The ΔF value (a measurement of SMN protein abundance as a percent value) for each sample well is calculated by subtracting the normalized average fluorescence for the Blank control wells from the normalized fluorescence for each sample well, then dividing this difference by the normalized average fluorescence for the Blank control wells and multiplying the resulting value by 100. The ΔF value for each sample well represents the SMN protein abundance from test compound-treated samples. The ΔF value for each sample well is divided by the ΔF value for the vehicle control wells to calculate the fold increase in SMN protein abundance relative to the vehicle control. Table 5 provides EC1.5× concentrations for SMN protein expression that was obtained from the 7-point concentration data generated according to the above procedure for particular compounds of the present invention.
Table 6 provides the maximum fold increase of SMN protein that was obtained from the 7-point concentration data generated according to the above procedure for particular compounds of the present invention
(Time-resolved FRET reads energy transfer from a long-lived donor to a nearby acceptor.)

The test system of assay [2] is full length SMN2 minigene mRNA (HEK293H cells stably transfected with the SMN2-A minigene construct). Description: RT-qPCR assay for SMN2 minigene pre-mRNA splicing in cultured cells. The assay is classed as cell-based. To be noted: Homo sapiens, HEK293-H, 24 hours, 7-point concentration curve, concentration giving 1.5-fold FL SMN2mini mRNA vs vehicle, read-out: EC1.5x minigene (EC1.5x concentration for production of full length SMN2 minigene mRNA). How it is done:
The reverse transcription-quantitative PCR-based (RT-qPCR) assay is used to quantify the level of the full length SMN2 minigene (referred to herein by the term “FL SMN2mini”) mRNA containing SMN2 exon 7 in a HEK293H cell line stably transfected with said minigene and treated with a test compound. Materials used and respective sources are listed below in Table 1.
The SMN2-A minigene construct was prepared as described in International Patent Application WO2009/151546A1 page 145 paragraph [00400] to page 147 paragraph [00412] (incl. FIG. 1 and FIG. 3 therein).
HEK293H cells stably transfected with the SMN2-A minigene construct (10,000 cells/well) are seeded in 200 μL of cell culture medium (DMEM plus 10% FBS, with 200 μg/mL hygromycin) in 96-well flat-bottom plates and the plate is immediately swirled to ensure proper dispersal of cells and the formation of an even monolayer of cells. Cells are allowed to attach for 6 hours. Test compounds are serially diluted 3.16-fold in 100% DMSO to generate a 7-point concentration curve. A solution of test compound (1 μL, 200× in DMSO) is added to each cell-containing well and the plate is incubated for 24 hours in a cell culture incubator (37° C., 5% CO2, 100% relative humidity). 2 replicates are prepared for each test compound concentration. The cells are then lysed in the Cells-To-Ct lysis buffer and the lysate is stored at −80° C.
Full length SMN2-A minigene and GAPDH mRNA are quantified using the primers and probes referenced in Table 2. Primer SMN Forward A (SEQ ID NO.1) hybridizes to a nucleotide sequence in exon 7 (nucleotide 22 to nucleotide 40), primer SMN Reverse A (SEQ ID NO.2) hybridizes to a nucleotide sequence in the coding sequence of Firefly luciferase, SMN Probe A (SEQ ID NO.3) hybridizes to a nucleotide sequence in exon 7 (nucleotide 50 to nucleotide 54) and exon 8 (nucleotide 1 to nucleotide 21). The combination of these three oligonucleotides detects only SMN1 or SMN2 minigenes (RT-qPCR) and will not detect endogenous SMN1 or SMN2 genes.
The SMN forward and reverse primers are used at final concentrations of 0.4 μM. The SMN probe is used at a final concentration of 0.15 μM. The GAPDH primers are used at final concentrations of 0.2 μM and the probe at 0.15 μM.
The SMN2-minigene GAPDH mix (15 μL total volume) is prepared by combining 7.5 of 2×RT-PCR buffer, 0.4 μL of 25×RT-PCR enzyme mix, 0.75 μL of 20× GAPDH primer-probe mix, […] of water, 2 μL of 10-fold diluted cell lysate, 0.06 μL of 100 μM SMN forward primer, 0.06 μL of 100 μM SMN reverse primer, and 0.225 μL of 100 μM SMN probe.
PCR is carried out at the following temperatures for the indicated time: Step 1: 48° C. (15 min); Step 2: 95° C. (10 min); Step 3: 95° C. (15 sec); Step 4: 60° C. (1 min); then repeat Steps 3 and 4 for a total of 40 cycles.
Each reaction mixture contains both SMN2-A minigene and GAPDH primers/probe sets (multiplex design), allowing simultaneous measurement of the levels of two transcripts.
The increase in the abundance of the FL SMN2mini mRNA relative to that in cells treated with vehicle control is determined from real-time PCR data using a modified ΔΔCt method (as described in Livak and Schmittgen, Methods, 2001, 25:402-8). The amplification efficiency E is calculated from the slope of the amplification curve for FL SMN2mini and GAPDH individually. The abundance of FL SMN2mini and GAPDH mRNA are then calculated as (1+E)^−Ct, where Ct is the threshold value for each amplicon. The abundance of FL SMN2mini mRNA is normalized to GAPDH mRNA abundance. The normalized FL SMN2mini mRNA abundance from test compound-treated samples is then divided by normalized FL SMN2mini mRNA abundance from vehicle-treated cells to determine the level of FL SMN2mini mRNA relative to vehicle control. […]

Turning to `Cc1cn2cc(NC(=O)c3ccc(N4CCN[C@H](C)C4)cc3F)nc(C(F)F)c2n1` [Example 44, N-[8-(difluoromethyl)-2-methylimidazo[1,2-a]pyrazin-6-yl]-2-fluoro-4-[(3R)-3-methylpiperazin-1-yl]benzamide], in assay [1], the EC (1.5-fold) worked out at 0.035 µM and the maximal fold induction stood at 1.79. For the same molecule, the EC (1.5-fold) in assay [2] worked out at 0.0095 µM.

Turning to `CC[C@H]1CN(c2ccc(C(=O)Nc3cn4cc(C)nc4cn3)c(F)c2)CCN1` [Example 42, 4-[(3S)-3-ethylpiperazin-1-yl]-2-fluoro-N-(2-methylimidazo[1,2-a]pyrazin-6-yl)benzamide hydrochloride], in assay [1], the EC (1.5-fold) turned out to be 0.231 µM and the maximal fold induction worked out at 1.72. Besides, the EC (1.5-fold) in assay [2] turned out to be 0.0144 µM.

Take `CCOc1cc(N2C[C@@H](C)N[C@@H](C)C2)ccc1C(=O)Nc1cn2cc(C)nc2cn1` [Example 10, 4-[(3S,5R)-3,5-dimethylpiperazin-1-yl]-2-ethoxy-N-(2-methylimidazo[1,2-a]pyrazin-6-yl)benzamide]: the EC (1.5-fold) in assay [1] came out at 0.13 µM; in assay [2], 0.0383 µM. The maximal fold induction in assay [1] amounted to 1.91.

As for `Cc1cn2cc(NC(=O)c3c(F)cc(N4CCNCC4)cc3Cl)ncc2n1` [Example 28, 2-chloro-6-fluoro-N-(2-methylimidazo[1,2-a]pyrazin-6-yl)-4-piperazin-1-ylbenzamide hydrochloride], in assay [1], the EC (1.5-fold) is 8.76 µM and the maximal fold induction is 1.65. Moreover, in assay [2], the EC (1.5-fold) amounted to 2.03 µM.

As to `Cc1cn2cc(NC(=O)c3ccc(N4CCN5CCC[C@H]5C4)cc3F)nc(C)c2n1` [Example 13, 4-[(8aS)-3,4,6,7,8,8a-hexahydro-1H-pyrrolo[1,2-a]pyrazin-2-yl]-N-(2,8-dimethylimidazo[1,2-a]pyrazin-6-yl)-2-fluorobenzamide], in assay [1], the EC (1.5-fold) was found to be 0.109 µM and the maximal fold induction worked out at 1.66. Besides, in assay [2], the EC (1.5-fold) turned out to be 0.0262 µM.

In the case of `Cc1cn2cc(NC(=O)c3ccc(N4CCNCC4)cc3)ncc2n1` [Example 2, N-(2-methylimidazo[1,2-a]pyrazin-6-yl)-4-piperazin-1-ylbenzamide hydrochloride], the EC (1.5-fold) in assay [1] was 2.25 µM; in assay [2], 1.05 µM. For the same molecule, in assay [1], the maximal fold induction was 1.74.

Consider `Cc1cn2cc(NC(=O)c3ccc(N4CC[C@@H](N5CCCC5)C4)cc3F)ncc2n1` [Example 33, 2-fluoro-N-(2-methylimidazo[1,2-a]pyrazin-6-yl)-4-[(3R)-3-pyrrolidin-1-ylpyrrolidin-1-yl]benzamide], for which the EC (1.5-fold) came to 0.122 µM in assay [1] and 0.0222 µM in assay [2]. Also, in assay [1], the maximal fold induction is 1.78.

As for `Cc1cn2cc(NC(=O)c3ccc(N4CCNC(C)(C)C4)cc3F)ncc2n1` [Example 35, 4-(3,3-dimethylpiperazin-1-yl)-2-fluoro-N-(2-methylimidazo[1,2-a]pyrazin-6-yl)benzamide hydrochloride], the EC (1.5-fold) in assay [1] was 0.505 µM; in assay [2], 0.0317 µM. In addition, the maximal fold induction in assay [1] is 2.16.

For `Cc1cn2cc(NC(=O)c3ccc(N4CCN[C@H](C)C4)cc3F)ncc2n1` [Example 25, 2-fluoro-N-(2-methylimidazo[1,2-a]pyrazin-6-yl)-4-[(3R)-3-methylpiperazin-1-yl]benzamide hydrochloride], in assay [1], the EC (1.5-fold) came to 0.123 µM and the maximal fold induction is 1.88. In addition, the EC (1.5-fold) in assay [2] stood at 0.0146 µM.

Regarding `COc1cc(N2CCN[C@H](C)C2)ccc1C(=O)Nc1cn2cc(C)nc2cn1` [Example 38, 2-methoxy-N-(2-methylimidazo[1,2-a]pyrazin-6-yl)-4-[(3R)-3-methylpiperazin-1-yl]benzamide], in assay [1], the EC (1.5-fold) was 0.206 µM and the maximal fold induction stood at 1.74. Besides, in assay [2], the EC (1.5-fold) turned out to be 0.0578 µM.

Turning to `CCOc1cc(N2CCN3CCC[C@H]3C2)ccc1C(=O)Nc1cn2cc(C)nc2cn1` [Example 3, 4-[(8aS)-3,4,6,7,8,8a-hexahydro-1H-pyrrolo[1,2-a]pyrazin-2-yl]-2-ethoxy-N-(2-methylimidazo[1,2-a]pyrazin-6-yl)benzamide], in assay [1], the EC (1.5-fold) was 0.409 µM and the maximal fold induction was found to be 1.83. Moreover, the EC (1.5-fold) in assay [2] was 0.102 µM.

With `CCOc1cc(N2CCN[C@H](C)C2)ccc1C(=O)Nc1cn2cc(C)nc2cn1` [Example 5, 2-ethoxy-N-(2-methylimidazo[1,2-a]pyrazin-6-yl)-4-[(3R)-3-methylpiperazin-1-yl]benzamide], the results for the EC (1.5-fold) in assay [1] and in assay [2] were 0.185 µM and 0.041 µM, respectively. Further, in assay [1], the maximal fold induction stood at 1.9.

As for `COc1cc(N2CCNC3(CC3)C2)ccc1C(=O)Nc1cn2cc(C)nc2cn1` [Example 34, 4-(4,7-diazaspiro[2.5]octan-7-yl)-2-methoxy-N-(2-methylimidazo[1,2-a]pyrazin-6-yl)benzamide], in assay [1], the EC (1.5-fold) came to 1.25 µM and the maximal fold induction came out at 1.69. Moreover, in assay [2], the EC (1.5-fold) is 0.214 µM.

As to `Cc1cn2cc(NC(=O)c3cc(F)c(N4CCNC(C)C4)cc3F)ncc2n1` (stereo not drawn) [Example 29, 2,5-difluoro-N-(2-methylimidazo[1,2-a]pyrazin-6-yl)-4-(3-methylpiperazin-1-yl)benzamide hydrochloride], in assay [1], the EC (1.5-fold) stood at 0.495 µM and the maximal fold induction was determined as 1.91. Moreover, the EC (1.5-fold) in assay [2] was 0.0852 µM.
